Results taken from patent US11083725B2 (priority 2014, dated 2021).

Test system: NHBE cells
Assay: Biolog metabolic array: substrate use by NHBE cells with or without CA09 infection
Assay type: cell-based, human
Settings: for Substrate use, 590 nm absorbance normalized to zero hour, 0 hr: Biolog PMM2, 0 hr; for Substrate use, 590 nm absorbance normalized to zero hour, 1 hr: Biolog PMM2, 1 hr; for Substrate use, 590 nm absorbance normalized to zero hour, 5 hr: Biolog PMM2, 5 hr; for Substrate use, 590 nm absorbance normalized to zero hour, 7 hr: Biolog PMM2, 7 hr
[1] = Control (uninfected) NHBE cells
[2] = Virus (CA09-infected, MOI 1) NHBE cells
[3] = Virus: CA09-infected NHBE cells, MOI 1, Biolog PMM2
[4] = Virus (CA09-infected NHBE cells, MOI 1)

CO[C@@H]1O[C@H](CO)[C@H](O)[C@H](O)[C@H]1O [b-Methyl-D-Galactoside]
590 nm absorbance normalized to zero hour (substrate use), 0 hr [1]: 1.00 | 590 nm absorbance normalized to zero hour (substrate use), 1 hr [1]: 0.52 | 590 nm absorbance normalized to zero hour (substrate use), 2 hr [1]: 0.68 | 590 nm absorbance normalized to zero hour (substrate use), 3 hr [1]: 0.78 | 590 nm absorbance normalized to zero hour (substrate use), 4 hr [1]: 0.87 | 590 nm absorbance normalized to zero hour (substrate use), 6 hr [1]: 1.28 | 590 nm absorbance normalized to zero hour (substrate use), 8 hr [1]: 1.24 | 590 nm absorbance normalized to zero hour (substrate use), 9 hr [1]: 1.36 | 590 nm absorbance normalized to zero hour (substrate use), 10 hr [1]: 1.54 | 590 nm absorbance normalized to zero hour (substrate use), 11 hr [1]: 1.61 | Substrate use, 590 nm absorbance normalized to zero hour, 0 hr [1]: 1.00 | Substrate use, 590 nm absorbance normalized to zero hour, 1 hr [1]: 0.52 | Substrate use, 590 nm absorbance normalized to zero hour, 5 hr [1]: 1.05 | Substrate use, 590 nm absorbance normalized to zero hour, 7 hr [1]: 1.17 | 590 nm absorbance normalized to zero hour (substrate use), 0 hr [2]: 1.00 | 590 nm absorbance normalized to zero hour (substrate use), 1 hr [2]: 0.74 | 590 nm absorbance normalized to zero hour (substrate use), 2 hr [2]: 0.95 | 590 nm absorbance normalized to zero hour (substrate use), 3 hr [2]: 1.11 | 590 nm absorbance normalized to zero hour (substrate use), 4 hr [2]: 1.18 | 590 nm absorbance normalized to zero hour (substrate use), 5 hr [2]: 1.36 | 590 nm absorbance normalized to zero hour (substrate use), 6 hr [2]: 1.45 | 590 nm absorbance normalized to zero hour (substrate use), 7 hr [2]: 1.52 | 590 nm absorbance normalized to zero hour (substrate use), 8 hr [2]: 1.60 | 590 nm absorbance normalized to zero hour (substrate use), 9 hr [2]: 1.76 | 590 nm absorbance normalized to zero hour (substrate use), 10 hr [2]: 1.81 | 590 nm absorbance normalized to zero hour (substrate use), 11 hr [2]: 1.96 | 590 nm absorbance normalized to zero hour (substrate use), 0 hr [3]: 1.00 | 590 nm absorbance normalized to zero hour (substrate use), 1 hr [3]: 0.74 | 590 nm absorbance normalized to zero hour (substrate use), 2 hr [3]: 0.95 | 590 nm absorbance normalized to zero hour (substrate use), 3 hr [3]: 1.11 | 590 nm absorbance normalized to zero hour (substrate use), 4 hr [3]: 1.18 | 590 nm absorbance normalized to zero hour (substrate use), 5 hr [3]: 1.36 | 590 nm absorbance normalized to zero hour (substrate use), 6 hr [3]: 1.45 | 590 nm absorbance normalized to zero hour (substrate use), 7 hr [3]: 1.52 | 590 nm absorbance normalized to zero hour (substrate use), 8 hr [3]: 1.60 | 590 nm absorbance normalized to zero hour (substrate use), 9 hr [3]: 1.76 | 590 nm absorbance normalized to zero hour (substrate use), 10 hr [3]: 1.81 | 590 nm absorbance normalized to zero hour (substrate use), 11 hr [3]: 1.96

OC[C@@H](O)[C@@H](O)CO [i-Erythritol]
590 nm absorbance normalized to zero hour (substrate use), 0 hr [1]: 1.00 | 590 nm absorbance normalized to zero hour (substrate use), 1 hr [1]: 1.76 | 590 nm absorbance normalized to zero hour (substrate use), 2 hr [1]: 2.33 | 590 nm absorbance normalized to zero hour (substrate use), 3 hr [1]: 2.67 | 590 nm absorbance normalized to zero hour (substrate use), 4 hr [1]: 2.83 | 590 nm absorbance normalized to zero hour (substrate use), 6 hr [1]: 5.19 | 590 nm absorbance normalized to zero hour (substrate use), 8 hr [1]: 3.84 | 590 nm absorbance normalized to zero hour (substrate use), 9 hr [1]: 4.30 | 590 nm absorbance normalized to zero hour (substrate use), 10 hr [1]: 4.08 | 590 nm absorbance normalized to zero hour (substrate use), 11 hr [1]: 4.22 | Substrate use, 590 nm absorbance normalized to zero hour, 0 hr [1]: 1.00 | Substrate use, 590 nm absorbance normalized to zero hour, 1 hr [1]: 1.76 | Substrate use, 590 nm absorbance normalized to zero hour, 5 hr [1]: 3.31 | Substrate use, 590 nm absorbance normalized to zero hour, 7 hr [1]: 3.78 | 590 nm absorbance normalized to zero hour (substrate use), 0 hr [4]: 1.00 | 590 nm absorbance normalized to zero hour (substrate use), 1 hr [4]: 0.23 | 590 nm absorbance normalized to zero hour (substrate use), 2 hr [4]: 0.29 | 590 nm absorbance normalized to zero hour (substrate use), 3 hr [4]: 0.32 | 590 nm absorbance normalized to zero hour (substrate use), 4 hr [4]: 0.34 | 590 nm absorbance normalized to zero hour (substrate use), 5 hr [4]: 0.39 | 590 nm absorbance normalized to zero hour (substrate use), 6 hr [4]: 0.41 | 590 nm absorbance normalized to zero hour (substrate use), 7 hr [4]: 0.43 | 590 nm absorbance normalized to zero hour (substrate use), 8 hr [4]: 0.45 | 590 nm absorbance normalized to zero hour (substrate use), 9 hr [4]: 0.49 | 590 nm absorbance normalized to zero hour (substrate use), 10 hr [4]: 0.50 | 590 nm absorbance normalized to zero hour (substrate use), 11 hr [4]: 0.53 | 590 nm absorbance normalized to zero hour (substrate use), 0 hr [3]: 1.00 | 590 nm absorbance normalized to zero hour (substrate use), 1 hr [3]: 0.23 | 590 nm absorbance normalized to zero hour (substrate use), 2 hr [3]: 0.29 | 590 nm absorbance normalized to zero hour (substrate use), 3 hr [3]: 0.32 | 590 nm absorbance normalized to zero hour (substrate use), 4 hr [3]: 0.34 | 590 nm absorbance normalized to zero hour (substrate use), 5 hr [3]: 0.39 | 590 nm absorbance normalized to zero hour (substrate use), 6 hr [3]: 0.41 | 590 nm absorbance normalized to zero hour (substrate use), 7 hr [3]: 0.43 | 590 nm absorbance normalized to zero hour (substrate use), 8 hr [3]: 0.45 | 590 nm absorbance normalized to zero hour (substrate use), 9 hr [3]: 0.49 | 590 nm absorbance normalized to zero hour (substrate use), 10 hr [3]: 0.50 | 590 nm absorbance normalized to zero hour (substrate use), 11 hr [3]: 0.53

CO[C@H]1O[C@H](CO)[C@@H](O)[C@H](O)[C@@H]1O [a-Methyl-D-Mannoside]
590 nm absorbance normalized to zero hour (substrate use), 0 hr [1]: 1.00 | 590 nm absorbance normalized to zero hour (substrate use), 1 hr [1]: 1.26 | 590 nm absorbance normalized to zero hour (substrate use), 2 hr [1]: 1.58 | 590 nm absorbance normalized to zero hour (substrate use), 3 hr [1]: 1.74 | 590 nm absorbance normalized to zero hour (substrate use), 4 hr [1]: 1.89 | 590 nm absorbance normalized to zero hour (substrate use), 6 hr [1]: 2.77 | 590 nm absorbance normalized to zero hour (substrate use), 8 hr [1]: 2.13 | 590 nm absorbance normalized to zero hour (substrate use), 9 hr [1]: 2.16 | 590 nm absorbance normalized to zero hour (substrate use), 10 hr [1]: 2.95 | 590 nm absorbance normalized to zero hour (substrate use), 11 hr [1]: 2.58 | Substrate use, 590 nm absorbance normalized to zero hour, 0 hr [1]: 1.00 | Substrate use, 590 nm absorbance normalized to zero hour, 1 hr [1]: 1.26 | Substrate use, 590 nm absorbance normalized to zero hour, 5 hr [1]: 2.33 | Substrate use, 590 nm absorbance normalized to zero hour, 7 hr [1]: 2.46 | 590 nm absorbance normalized to zero hour (substrate use), 0 hr [4]: 1.00 | 590 nm absorbance normalized to zero hour (substrate use), 1 hr [4]: 0.38 | 590 nm absorbance normalized to zero hour (substrate use), 2 hr [4]: 0.54 | 590 nm absorbance normalized to zero hour (substrate use), 3 hr [4]: 0.64 | 590 nm absorbance normalized to zero hour (substrate use), 4 hr [4]: 0.69 | 590 nm absorbance normalized to zero hour (substrate use), 5 hr [4]: 0.83 | 590 nm absorbance normalized to zero hour (substrate use), 6 hr [4]: 0.89 | 590 nm absorbance normalized to zero hour (substrate use), 7 hr [4]: 0.93 | 590 nm absorbance normalized to zero hour (substrate use), 8 hr [4]: 0.99 | 590 nm absorbance normalized to zero hour (substrate use), 9 hr [4]: 1.10 | 590 nm absorbance normalized to zero hour (substrate use), 10 hr [4]: 1.14 | 590 nm absorbance normalized to zero hour (substrate use), 11 hr [4]: 1.24 | 590 nm absorbance normalized to zero hour (substrate use), 0 hr [3]: 1.00 | 590 nm absorbance normalized to zero hour (substrate use), 1 hr [3]: 0.38 | 590 nm absorbance normalized to zero hour (substrate use), 2 hr [3]: 0.54 | 590 nm absorbance normalized to zero hour (substrate use), 3 hr [3]: 0.64 | 590 nm absorbance normalized to zero hour (substrate use), 4 hr [3]: 0.69 | 590 nm absorbance normalized to zero hour (substrate use), 5 hr [3]: 0.83 | 590 nm absorbance normalized to zero hour (substrate use), 6 hr [3]: 0.89 | 590 nm absorbance normalized to zero hour (substrate use), 7 hr [3]: 0.93 | 590 nm absorbance normalized to zero hour (substrate use), 8 hr [3]: 0.99 | 590 nm absorbance normalized to zero hour (substrate use), 9 hr [3]: 1.10 | 590 nm absorbance normalized to zero hour (substrate use), 10 hr [3]: 1.14 | 590 nm absorbance normalized to zero hour (substrate use), 11 hr [3]: 1.24
